Assay results published in patent EP4678644A1, “SUBSTITUTED DIHYDROTHIENOPYRIMIDINE COMPOUND, PREPARATION METHOD THEREFOR, AND USE THEREOF” (Shanghai Yidi Biotechnology Co., Ltd., priority 2023, dated 2024).
pIC50: −log10 of the molar value.

Key:
PDE4B2 [1] = target: T1, PDE4B2 (Homo sapiens, UniProt Q07343); assay: PDE4B2 enzyme experiment (AMP-glo, cAMP substrate); type: biochemical
T1 construct: expressed in transfected cells; host or cells: Flp-In-293 (Flpin-293-PDE4B2 [sic])

PDE4D2 = PDE4D2 (Homo sapiens, UniProt Q08499); assay: PDE4D2 enzyme experiment (AMP-glo, cAMP substrate); type: biochemical; conditions: read-out: PDE4D2 IC50 Binding
From the text: Inhibition rate % ^= (1 - (RLUpositive control - RLUcompound)/(RLUpositive control - RLUnegative control)) * 100.

PDE4B2 [2] = target: T1, PDE4B2; assay: PDE4B2 cell experiment (cAMP, Eu-cAMP tracer / Ulight-anti-cAMP); type: cell-based; conditions: Flpin-293-PDE4B2 cells; for pIC50: Foskolin; for Cell Inhibition% @1 nM / inhibition at 0.001 µM: 1 nM; for Cell Inhibition% @10 nM / inhibition at 0.01 µM: 10 nM; for Cell Inhibition% @100 nM / inhibition at 0.1 µM: 100 nM
Method: All compounds were dissolved in DMSO into 10 mM or 20 mM stock solutions. The compound to be tested was diluted with DMSO with a 3-fold gradient. […] 40 nL/well of the compound or a DMSO control was transferred to a 384-well plate by using Echo 550 instrument. […] The plate was incubated at 37°C for 30 minutes. Eu-cAMP tracer and Ulight-anti-cAMP were frozen and thawed and diluted in a lysis buffer. 10 of µl Eu-cAMP tracer was added to an experimental well, and 10 µl of Ulight-anti-cAMP was added to the experimental well. The reaction plate was centrifuged at 200 g at room temperature for 30 s and then left to stand at 25°C for 1 h, and data was then collected by Envision. Inhibition % = 100 - (Signal compound - SignalAve positive control)/(SignalAve negative control - SignalAve positive control) × 100. Graphpad 8.0 software was then used to obtain an IC50 value by calculation using Y = Bottom + (Top - Bottom)/(1 + 10^((LogIC50 - X) * HillSlope)).

T1 sequence (Q07343 1-564 isoform Q07343-2): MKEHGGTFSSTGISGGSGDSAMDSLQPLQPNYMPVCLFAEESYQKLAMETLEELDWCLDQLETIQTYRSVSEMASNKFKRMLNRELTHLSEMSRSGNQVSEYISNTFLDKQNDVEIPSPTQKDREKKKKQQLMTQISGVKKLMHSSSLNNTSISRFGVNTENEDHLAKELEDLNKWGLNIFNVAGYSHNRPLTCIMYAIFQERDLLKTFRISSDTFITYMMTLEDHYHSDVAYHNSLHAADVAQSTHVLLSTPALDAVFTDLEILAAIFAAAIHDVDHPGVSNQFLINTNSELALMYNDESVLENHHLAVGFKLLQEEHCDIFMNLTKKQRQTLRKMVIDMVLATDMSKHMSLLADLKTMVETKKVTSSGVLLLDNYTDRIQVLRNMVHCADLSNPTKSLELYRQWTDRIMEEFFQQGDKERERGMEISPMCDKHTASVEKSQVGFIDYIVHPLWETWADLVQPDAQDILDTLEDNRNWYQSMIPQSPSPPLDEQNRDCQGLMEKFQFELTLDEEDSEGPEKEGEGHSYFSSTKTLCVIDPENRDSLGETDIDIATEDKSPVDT
Chain of PDE4D2 (Q08499 303-809 limits assumed): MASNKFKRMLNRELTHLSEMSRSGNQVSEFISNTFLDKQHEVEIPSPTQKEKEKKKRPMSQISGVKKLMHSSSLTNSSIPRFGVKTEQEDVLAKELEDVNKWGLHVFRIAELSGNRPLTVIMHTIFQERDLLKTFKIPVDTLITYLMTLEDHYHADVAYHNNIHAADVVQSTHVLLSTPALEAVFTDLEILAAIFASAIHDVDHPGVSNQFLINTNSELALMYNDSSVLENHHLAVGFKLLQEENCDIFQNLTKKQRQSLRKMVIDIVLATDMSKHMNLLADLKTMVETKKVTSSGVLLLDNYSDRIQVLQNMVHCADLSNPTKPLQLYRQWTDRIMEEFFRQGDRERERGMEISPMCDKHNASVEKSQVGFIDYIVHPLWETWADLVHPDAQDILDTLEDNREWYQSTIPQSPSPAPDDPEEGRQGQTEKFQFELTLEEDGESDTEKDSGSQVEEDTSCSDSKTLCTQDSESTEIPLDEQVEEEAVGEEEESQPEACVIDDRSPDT

Row | Compound | pIC50 (PDE4B2 [1]) | pIC50 (PDE4D2) | pIC50 (PDE4B2 [2]) | Cell Inhibition% @1 nM (PDE4B2 [2]) [%] | Cell Inhibition% @10 nM (PDE4B2 [2]) [%] | Cell Inhibition% @100 nM (PDE4B2 [2]) [%] | inhibition at 0.001 µM (PDE4B2 [2]) [%] | inhibition at 0.01 µM (PDE4B2 [2]) [%] | inhibition at 0.1 µM (PDE4B2 [2]) [%]
1 | COc1ccc2c(c1)CCN(c1nc3c(c(NC4(CO)CCC4)n1)[S+]([O-])CC3)C2 (centres unmarked) [Compound 22] | 9.01 | 8.83 | 7.83 | – | – | – | – | – | –
2 | [O-][S+]1CCc2nc(N3CCc4cc(Br)ccc4C3)nc(NC3(CO)CCC3)c21 (centres unmarked) [Compound 24] | 9.42 | 9.04 | 7.98 | – | – | – | – | – | –
3 | [O-][S+]1CCc2nc(N3CCc4cc(Cl)cc(Cl)c4C3)nc(NC3(CO)CCC3)c21 (centres unmarked) [Compound 25] | 9.04 | 8.66 | 7.63 | – | – | – | – | – | –
4 | [O-][S+]1CCc2nc(N3CCc4cc(Cl)c(Cl)cc4C3)nc(NC3(CO)CCC3)c21 (centres unmarked) [Compound 26] | 9.11 | 8.60 | 7.71 | – | – | – | – | – | –
5 | O=[N+]([O-])c1ccc2c(c1)CCN(c1nc3c(c(NC4(CO)CCC4)n1)[S+]([O-])CC3)C2 (centres unmarked) [Compound 27] | 9.26 | 9.06 | 8.09 | – | – | – | – | – | –
6 | [O-][S+]1CCc2nc(N3CCc4c(nn5cc(F)ccc45)C3)nc(NC3(CO)CCC3)c21 (centres unmarked) [Compound 32] | 9.70 | 9.39 | – | 23.54 | 74.22 | 97.65 | – | – | –
7 | [O-][S+]1CCc2nc(N3CCc4cc5c(cc4C3)OCO5)nc(NC3(CO)CCC3)c21 (centres unmarked) [Compound 35] | 8.88 | 8.41 | 7.34 | – | – | – | – | – | –
8 | O=c1[nH]c2cc3c(cc2o1)CN(c1nc2c(c(NC4(CO)CCC4)n1)[S@+]([O-])CC2)CC3 [Compound 51, (R)-6-(4-((1-(hydroxymethyl)cyclobutyl)amino)-5-oxido-6,7-dihydrothieno[3,2-d]pyrimidin-2-yl)-5,6,7,8-tetrahydrooxazolo[4,5-g]isoquinolin-2(1H)-one] | 9.22 | 8.93 | – | – | – | – | 17.1 | 38.4 | 70.1
9 | [O-][S+]1CCc2nc(N3CCc4cc(C(F)(F)F)ccc4C3)nc(NC3(CO)CCC3)c21 (centres unmarked) [Compound 52] | 9.31 | 9.08 | – | – | 81.81 | 99.55 | – | – | –
10 | [O-][S@+]1CCc2nc(N3CCc4sc(I)cc4C3)nc(NC3(CO)CCC3)c21 [Compound 56, (R)-4-((1-(hydroxymethyl)cyclobutyl)amino)-2-(2-iodo-6,7-dihydrothieno[3,2-c]pyridin-5(4H)-yl)-6,7-dihydrothieno[2,2-d]pyrimidine 5-oxide] | 9.00 | 8.71 | – | – | – | – | – | 40.6 | 90.2
11 | [O-][S+]1CCc2nc(N3Cc4ccc(Br)cc4C3)nc(NC3(CO)CCC3)c21 (centres unmarked) [Compound 59] | 8.67 | 8.32 | – | – | 42.65 | 85.82 | – | – | –
12 | [O-][S+]1CCc2nc(N3CCc4cc(I)ccc4C3)nc(NC3(CO)CCC3)c21 (centres unmarked) [Compound 67] | 9.48 | 9.18 | – | 14.20 | 47.36 | 96.42 | – | – | –
13 | Cn1c(=O)oc2cc3c(cc21)CCN(c1nc2c(c(NC4(CO)CCC4)n1)[S@+]([O-])CC2)C3 [Compound 68, (R)-6-(4-((1-(hydroxymethyl)cyclobutyl)amino)-5-oxido-6,7-dihydrothieno[3,2-d]pyrimidin-2-yl)-1-methyl-5,6,7,8-tetrahydrooxazolo[4,5-g]isoquinolin-2(1H)-one] | 9.32 | 9.11 | – | – | – | – | 8.99 | 56.3 | 96.1
14 | Cn1ccc(-c2ccc3c(c2)CCN(c2nc4c(c(NC5(CO)CCC5)n2)[S+]([O-])CC4)C3)n1 (centres unmarked) [Compound 77] | 10.30 | 10.31 | – | 61.02 | 99.37 | 100.73 | – | – | –
15 | [O-][S+]1CCc2nc(N3CCc4cc(Cl)ncc4C3)nc(NC3(CO)CCC3)c21 (centres unmarked) [Compound 78] | 8.74 | 8.40 | – | 2.20 | 32.09 | 86.33 | – | – | –
16 | COc1ccc2sc3c(c2c1)CCN(c1nc2c(c(NC4(CO)CCC4)n1)[S+]([O-])CC2)C3 (centres unmarked) [Compound 82] | 9.44 | 9.12 | – | 19.08 | 77.47 | 99.87 | – | – | –
17 | [O-][S+]1CCc2nc(N3CC[C@@H]4c5ccccc5OC[C@H]4C3)nc(NC3(CO)CCC3)c21 (some centres unmarked) [Compound 83] | 9.21 | 8.97 | – | 5.79 | 47.82 | 97.34 | – | – | –
18 | [O-][S+]1CCc2nc(N3CCc4cc(-c5cnco5)ccc4C3)nc(NC3(CO)CCC3)c21 (centres unmarked) [Compound 85] | 10.07 | 9.81 | – | 41.7 | 97.0 | 101.1 | – | – | –
19 | CN1CCN(c2ccc3c(c2)CCN(c2nc4c(c(NC5(CO)CCC5)n2)[S+]([O-])CC4)C3)C1=O (centres unmarked) [Compound 86] | 9.62 | 9.32 | – | 8.69 | 63.13 | 97.77 | – | – | –
20 | [O-][S+]1CCc2nc(N3CCc4cc(N5CC(F)C5)ccc4C3)nc(NC3(CO)CCC3)c21 (centres unmarked) [Compound 89] | 9.15 | 8.79 | – | 3.47 | 37.42 | 95.32 | – | – | –
21 | [O-][S+]1CCc2nc(N3CCc4cc(-n5ccnc5)ccc4C3)nc(NC3(CO)CCC3)c21 (centres unmarked) [Compound 90] | 9.72 | 9.41 | – | 14.99 | 65.79 | 97.23 | – | – | –
22 | [O-][S+]1CCc2nc(N3CCc4cc(-n5cccn5)ccc4C3)nc(NC3(CO)CCC3)c21 (centres unmarked) [Compound 91] | 9.85 | 9.63 | – | 19.25 | 86.01 | 99.96 | – | – | –
23 | [O-][S+]1CCc2nc(N3CCc4cc(N5CCCC5)ccc4C3)nc(NC3(CO)CCC3)c21 (centres unmarked) [Compound 92] | 9.79 | 9.11 | – | 3.35 | 43.69 | 98.17 | – | – | –
24 | CS(=O)(=O)c1ccc2c(c1)CCN(c1nc3c(c(NC4(CO)CCC4)n1)[S+]([O-])CC3)C2 (centres unmarked) [Compound 93] | 9.46 | 9.22 | – | 14.02 | 61.02 | 94.24 | – | – | –
25 | Cn1cnc(-c2ccc3c(c2)CCN(c2nc4c(c(NC5(CO)CCC5)n2)[S+]([O-])CC4)C3)n1 (centres unmarked) [Compound 94] | 10.15 | 9.90 | – | 34.83 | 94.09 | 100.44 | – | – | –
26 | Cn1c2c(c3ccc(Cl)cc3c1=O)CCN(c1nc3c(c(NC4(CO)CCC4)n1)[S+]([O-])CC3)C2 (centres unmarked) [Compound 98] | 9.05 | 8.69 | – | -1.71 | 46.69 | 95.76 | – | – | –
27 | COc1nc2c(c3ccc(Cl)cc13)CCN(c1nc3c(c(NC4(CO)CCC4)n1)[S+]([O-])CC3)C2 (centres unmarked) [Compound 99] | 8.91 | 8.50 | – | 4.18 | 43.68 | 96.53 | – | – | –
28 | [O-][S+]1CCc2nc(N3CCc4c(ncc5cc(Cl)ccc45)C3)nc(NC3(CO)CCC3)c21 (centres unmarked) [Compound 100] | 9.37 | 8.94 | – | 6.00 | 47.68 | 97.30 | – | – | –
29 | COc1nc2cc(Cl)ccc2c2c1CN(c1nc3c(c(NC4(CO)CCC4)n1)[S+]([O-])CC3)CC2 (centres unmarked) [Compound 101] | 9.18 | 8.71 | 7.88 | – | – | – | – | – | –
